Calls of active or inactive are those of the source. The rule behind the calls is not given here.
Assays:
Assay type in all cases: functional
[1] = biological target: T1, Histidine-rich protein PFHRP-II (Plasmodium falciparum) (UniProt P05227); test: Inhibition of beta-hematin formation at drug to heme molar equivalent ratio of 10 by infrared spectra measured after 18 hrs
T1 sequence (whole entry): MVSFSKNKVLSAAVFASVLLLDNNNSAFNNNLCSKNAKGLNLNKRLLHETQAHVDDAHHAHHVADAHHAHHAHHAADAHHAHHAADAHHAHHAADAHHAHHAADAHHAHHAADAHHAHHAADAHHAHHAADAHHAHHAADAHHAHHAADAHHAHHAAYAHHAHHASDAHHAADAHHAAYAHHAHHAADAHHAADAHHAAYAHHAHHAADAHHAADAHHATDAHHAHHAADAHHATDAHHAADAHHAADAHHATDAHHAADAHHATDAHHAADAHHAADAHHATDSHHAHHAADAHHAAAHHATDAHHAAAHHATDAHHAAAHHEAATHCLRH

[2] = biological target: T1, Histidine-rich protein PFHRP-II (Plasmodium falciparum); test: Inhibition of beta-hematin formation at drug to heme molar equivalent ratio of 15 by infrared spectra measured after 18 hrs
[3] = biological target: T1, Histidine-rich protein PFHRP-II (Plasmodium falciparum); test: Inhibition of beta-hematin formation at drug to heme molar equivalent ratio of 3 by infrared spectra measured after 18 hrs
[4] = biological target: T1, Histidine-rich protein PFHRP-II (Plasmodium falciparum); test: Inhibition of beta-hematin formation at 1:1 drug to heme ratio by infrared spectra measured after 18 hrs
[5] = biological target: T1, Histidine-rich protein PFHRP-II (Plasmodium falciparum); test: Inhibition of beta-hematin formation at drug to heme molar equivalent ratio of 2 by infrared spectra measured after 18 hrs

With CCN(CC)CCCC(C)Nc1ccnc2cc(Cl)ccc12 (centres undefined) the Activity [1] was “Active”.

In the case of CO[C@H]1O[C@@H]2O[C@@]3(C)CC[C@H]4[C@H](C)CC[C@@H]([C@H]1C)[C@@]24OO3, the Activity [2] is reported as “inactive”.

With COc1cc(NC(C)CCCNC2CCC3(CC2)OOC2CCC(C(C)C)=CC2O3)c2ncccc2c1 (centres undefined) the Activity [3] was “Active”.

C[C@@H]1CC[C@H]2[C@@H](C)C(=O)O[C@@H]3O[C@@]4(C)CC[C@@H]1[C@]32OO4 was tested, and the Activity [2] was “inactive” and the Activity [4] was “Active”.

C[C@H]1[C@H](OC(=O)CCC(=O)O)O[C@@H]2O[C@@]3(C)CC[C@H]4[C@H](C)CC[C@@H]1[C@@]24OO3 was tested, and the Activity [2] was “inactive”.

NCCNc1ccnc2cc(Cl)ccc12 was tested, and the Activity [1] was “Active”.

CC(C)C1=CC2OC3(CCC(NCCNc4ccnc5cc(Cl)ccc45)CC3)OOC2CC1 (centres undefined) was tested, and the Activity [5] was “Active”.

COc1cc(NC(C)CCCN)c2ncccc2c1 (centres undefined) was tested, and the Activity [2] was “inactive”.
